Data as given in patent US20130310332A1, “MAPLE TREE-DERIVED PRODUCTS AND USES THEREOF” (UNIVERSITY OF RHODE ISLAND, priority 2010, published 2013).
Like-named read-outs stand apart in the source and are kept apart here.

Legend:
[1] = DPPH radical scavenging (antioxidant) assay; details: compounds from red maple stems
Method: The DPPH radical scavenging activity of ascorbic acid (vitamin C) and the synthetic commercial antioxidant, butylated hydroxytoluene (BHT), are also assayed as positive controls.
The DPPH radical scavenging activity of ascorbic acid (vitamin C) and the synthetic commercial antioxidant, butylated hydroxytoluene (BHT), are also assayed as positive controls. […] Absorbance is read after 30 min at 515 nm, and the scavenging capacity (SC) is calculated as SC %=(A0−A1/A0)×100, where A0 is the absorbance of the reagent blank and A1 is the absorbance of test samples. All tests are performed in triplicate.

α-glucosidase = α-glucosidase (Saccharomyces cerevisiae, UniProt P53341); assay: α-Glucosidase inhibition, red maple stem compounds (Example 4); format: biochemical; details: for α-glucosidase inhibitory activity (in words): by number of galloyl groups
HCT-116 cells = assay: MTS antiproliferative assay, HCT-116; format: cell-based; details: Homo sapiens
Method: (§1) The extracts are solubilized in DMSO and normalized based on their phenolic content to evaluate their antiproliferative activities against the colon cell lines. […] Caco-2 cells are grown in EMEM medium supplemented with 10% v/v fetal bovine serum, 1% v/v nonessential amino acids, 1% v/v L-glutamine and 1% v/v antibiotic solution (Sigma). HT-29 and HCT-116 cells are grown in McCoy's 5a medium supplemented with 10% v/v fetal bovine serum, 1% v/v nonessential amino acids, 2% v/v HEPES and 1% v/v antibiotic solution. CCD-18Co cells are grown in EMEM medium supplemented with 10% v/v fetal bovine serum, 1% v/v nonessential amino acids, 1% v/v L-glutamine and 1% v/v antibiotic solution and are used from PDL between 26 to 35 for all experiments. […] The pH of the culture medium is determined using pH indicator paper (pHydrion™ Brilliant, pH 5.5-9.0, Micro Essential Laboratory, NY, USA) inside the incubator. Cells are counted using a hemacytometer and are plated at 3,000-5,000 cells per well, in a 96-well format for 24 or 48 h prior to sample treatment depending on the cell line. […] Control cells are also run in parallel and subjected to the same changes in medium with 0.5% DMSO.
(§2) At the end of 48 or 72 h of treatment with serially diluted test samples, 20 μl of the MTS reagent, in combination with the electron coupling agent, phenazine methosulfate, is added to the wells and cells are incubated at 37° C. in a humidified incubator for 3 h. Absorbance at 490 nm (OD490) is monitored with a spectrophotometer (SpectraMax M2, Molecular Devices Corp., operated by SoftmaxPro v.4.6 software, Sunnyvale, Calif., USA), to obtain the number of cells relative to control populations. 20 μl of etoposide 4 mg/ml (Sigma) is assayed as a negative control of proliferation. […] Data are presented as the mean±S.D. of three separated experiments on each cell line.

HT-29 cells = assay: MTS antiproliferative assay, HT-29; format: cell-based; details: Homo sapiens
Method: as §1, §2

Caco-2 cells = assay: MTS antiproliferative assay, Caco-2; format: cell-based; details: Homo sapiens
Method: The extracts are solubilized in DMSO and normalized based on their phenolic content to evaluate their antiproliferative activities against the colon cell lines. […] CCD-18Co cells are grown in EMEM medium supplemented with 10% v/v fetal bovine serum, 1% v/v nonessential amino acids, 1% v/v L-glutamine and 1% v/v antibiotic solution and are used from PDL between 26 to 35 for all experiments. […] The pH of the culture medium is determined using pH indicator paper (pHydrion™ Brilliant, pH 5.5-9.0, Micro Essential Laboratory, NY, USA) inside the incubator. […] Control cells are also run in parallel and subjected to the same changes in medium with 0.5% DMSO. […] At the end of 48 or 72 h of treatment with serially diluted test samples, 20 μl of the MTS reagent, in combination with the electron coupling agent, phenazine methosulfate, is added to the wells and cells are incubated at 37° C. in a humidified incubator for 3 h. […] Data are presented as the mean±S.D. of three separated experiments on each cell line.

CCD-18Co cells = assay: MTS antiproliferative assay, normal colon CCD-18Co; format: cell-based; details: Homo sapiens
Method: as §1, §2

[2] = HCT-116, read-out: IC50 HCT-116 48 h, ginnalins, 48 h treatment
[3] = HCT-116, ginnalins, 72 h treatment, read-out: IC50 HCT-116 72 h
[4] = HT-29, read-out: IC50 HT-29 48 h, ginnalins, 48 h treatment
[5] = HT-29, ginnalins, 72 h treatment, read-out: IC50 HT-29 72 h
[6] = Caco-2, read-out: IC50 Caco-2 48 h, ginnalins, 48 h treatment
[7] = Caco-2, ginnalins, 72 h treatment, read-out: IC50 Caco-2 72 h
[8] = ginnalins, 72 h treatment, normal colon cells, read-out: IC50 CCD-18Co 72 h

α-glucosidase, sequence (P53341 whole entry): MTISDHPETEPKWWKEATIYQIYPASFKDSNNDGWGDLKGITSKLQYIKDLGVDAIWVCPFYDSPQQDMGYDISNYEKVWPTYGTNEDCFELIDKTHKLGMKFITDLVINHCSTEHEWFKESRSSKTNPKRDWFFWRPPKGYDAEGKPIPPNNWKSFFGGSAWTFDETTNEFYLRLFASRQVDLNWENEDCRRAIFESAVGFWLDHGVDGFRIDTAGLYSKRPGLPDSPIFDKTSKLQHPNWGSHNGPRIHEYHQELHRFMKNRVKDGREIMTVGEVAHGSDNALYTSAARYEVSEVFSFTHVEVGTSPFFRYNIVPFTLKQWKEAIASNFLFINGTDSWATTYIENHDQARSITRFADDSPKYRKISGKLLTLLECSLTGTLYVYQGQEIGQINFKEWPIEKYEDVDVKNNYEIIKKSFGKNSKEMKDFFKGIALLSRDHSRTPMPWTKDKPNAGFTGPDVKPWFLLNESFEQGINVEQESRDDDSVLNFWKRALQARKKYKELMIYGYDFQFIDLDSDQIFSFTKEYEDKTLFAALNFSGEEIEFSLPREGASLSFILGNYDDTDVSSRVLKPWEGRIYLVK

SMILES | IC50 [1] [µM] | inhibitors of α-glucosidase enzyme, concentration dependence (α-glucosidase) | α-glucosidase inhibitory activity (in words) (α-glucosidase) | also measured
Cc1cc(C(C)(C)C)c(O)c(C(C)(C)C)c1 [BHT, butylated hydroxytoluene, reference compound] | 1634 ± 16.1 |  |  | 
O=C(O[C@H]1[C@H](O)[C@@H](CO)OC[C@@H]1OC(=O)c1cc(O)c(O)c(O)c1)c1cc(O)c(O)c(O)c1 [RMS 9, 2,3-di-O-galloyl-1,5-anhydro-D-glucitol] | 18.8 ± 0.77 | inhibitors of α-glucosidase enzyme in a concentration-dependent manner | moderate α-glucosidase inhibitory activity | 
O=C(OC[C@H]1OC[C@H](O)[C@@H](O)[C@@H]1O)c1cc(O)c(O)c(O)c1 [RMS 12, 6-O-galloyl-1,5-anhydro-D-glucitol] | 32.7 ± 0.48 |  | do not show any activity | IC50 (HCT-116 cells; [2]): 25.1 ± 1.8 µg/mL; IC50 (HCT-116 cells; [3]): 20 ± 2 µg/mL; IC50 (HT-29 cells; [4]): 36.2 ± 1.5 µg/mL; IC50 (HT-29 cells; [5]): 27.3 ± 0.6 µg/mL; IC50 (Caco-2 cells; [6]): 31.1 ± 1.9 µg/mL; IC50 (Caco-2 cells; [7]): 22.6 ± 1.9 µg/mL; IC50 (CCD-18Co cells; [8]): 47.1 ± 5.3 µg/mL
O=C(O[C@H]1[C@H](O)[C@@H](OC(=O)c2cc(O)c(O)c(O)c2)CO[C@@H]1CO)c1cc(O)c(O)c(O)c1 [RMS 7, 2,4-di-O-galloyl-1,5-anhydro-D-glucitol] | 18.6 ± 0.77 | inhibitors of α-glucosidase enzyme in a concentration-dependent manner | moderate α-glucosidase inhibitory activity | 
COc1cc([C@@H]2c3cc4c(cc3[C@@H](O[C@@H]3O[C@@H]5CO[C@@H](C)O[C@H]5[C@H](O)[C@H]3O)[C@H]3COC(=O)[C@H]23)OCO4)cc(OC)c1O [Etoposide, reference compound] |  |  |  | IC50 (HCT-116 cells; HCT-116, MTS assay control, read-out: IC50 HCT116 (control of proliferation)): 10 to 20 µM; IC50 (HT-29 cells; HT-29, MTS assay control, read-out: IC50 HT29 (control of proliferation)): 10 to 20 µM; IC50 (Caco-2 cells; Caco-2, MTS assay control, read-out: IC50 Caco-2 (control of proliferation)): 10 to 20 µM; IC50 (CCD-18Co cells; MTS assay control, read-out: IC50 CCD-18Co (control of proliferation)): 30 to 40 µM
O=C(O[C@H]1[C@H](O)[C@@H](CO)OC[C@@H]1O)c1cc(O)c(O)c(O)c1 [RMS 4, 3-O-galloyl-1,5-anhydro-D-glucitol] | 48 ± 1.11 |  | do not show any activity | 
O=C(O[C@H]1[C@H](O)[C@@H](O)CO[C@@H]1CO)c1cc(O)c(O)c(O)c1 [RMS 5, 4-O-galloyl-1,5-anhydro-D-glucitol] | 45.6 ± 1.45 |  | do not show any activity | 

More lines, main results first:

IC50 [1] [µM] | SMILES | inhibitors of α-glucosidase enzyme, concentration dependence (α-glucosidase) | α-glucosidase inhibitory activity (in words) (α-glucosidase) | also measured
116 ± 4.98 | COC(=O)c1cc(O)c(O)c(OC)c1 [RMS 28, 3,4-dihydroxy-5-methoxybenzoic acid methyl ester] |  |  | 
18.5 ± 0.44 | O=C(OC[C@H]1OC[C@H](O)[C@@H](OC(=O)c2cc(O)c(O)c(O)c2)[C@@H]1O)c1cc(O)c(O)c(O)c1 [RMS 18, 3,6-di-O-galloyl-1,5-anhydro-D-glucitol] | inhibitors of α-glucosidase enzyme in a concentration-dependent manner | moderate α-glucosidase inhibitory activity | 
17.7 ± 0.21 | O=C(OC[C@H]1OC[C@H](OC(=O)c2cc(O)c(O)c(O)c2)[C@@H](O)[C@@H]1O)c1cc(O)c(O)c(O)c1 [RMS 26, 2,6-di-O-galloyl-1,5-anhydro-D-glucitol] | inhibitors of α-glucosidase enzyme in a concentration-dependent manner | moderate α-glucosidase inhibitory activity | IC50 (HCT-116 cells; [2]): 21.5 ± 1.6 µg/mL; IC50 (HCT-116 cells; [3]): 16.3 ± 2.1 µg/mL; IC50 (HT-29 cells; [4]): 31 ± 2.6 µg/mL; IC50 (HT-29 cells; [5]): 24.1 ± 1.3 µg/mL; IC50 (Caco-2 cells; [6]): 28.8 ± 1.8 µg/mL; IC50 (Caco-2 cells; [7]): 21.7 ± 1 µg/mL; IC50 (CCD-18Co cells; [8]): 46.6 ± 3.6 µg/mL
71 ± 1.61 | O=C1O[C@H]([C@@H](O)CO)C(O)=C1O [Vitamin C, ascorbic acid, reference compound] |  |  | 
16.5 ± 0.26 | COC(=O)c1cc(O)c(O)c(O)c1 [RMS 17, Methyl gallate] | inhibitors of α-glucosidase enzyme in a concentration-dependent manner |  | 
13.1 | O=C(OC[C@H]1OC[C@H](OC(=O)c2cc(O)c(O)c(O)c2)[C@@H](O)[C@@H]1OC(=O)c1cc(O)c(O)c(O)c1)c1cc(O)c(O)c(O)c1 [RMS 24, 2,4,6-tri-O-galloyl-1,5-anhydro-D-glucitol] | inhibitors of α-glucosidase enzyme in a concentration-dependent manner | powerful α-glucosidase inhibitory activity | 
20.4 ± 0.34 | O=C(O)c1cc(O)c(O)c(O)c1 [RMS 14, gallic acid] |  |  | 
30.5 ± 0.8 | O=C(O[C@H]1CO[C@H](CO)[C@@H](O)[C@@H]1O)c1cc(O)c(O)c(O)c1 [RMS 27, 2-O-galloyl-1,5-anhydro-D-glucitol] |  | do not show any activity | IC50 (HCT-116 cells; [2]): 27 ± 1.9 µg/mL; IC50 (HCT-116 cells; [3]): 22.3 ± 2.4 µg/mL; IC50 (HT-29 cells; [4]): 33.8 ± 2 µg/mL; IC50 (HT-29 cells; [5]): 30.1 ± 1.3 µg/mL; IC50 (Caco-2 cells; [6]): 35 ± 1.4 µg/mL; IC50 (Caco-2 cells; [7]): 29.8 ± 1.2 µg/mL
991 ± 80.6 | COC(=O)c1cc(OC)c(O)c(OC)c1 [RMS 15, Methyl 3,5-dimethoxy-4-hydroxybenzoate] |  |  | 
